Laboratory results: patent US20230286973A1, “PROTEIN SECRETION INHIBITORS” (KEZAR LIFE SCIENCES, priority 2020, published 2023)
Like-named read-outs stand apart in the source and are kept apart here.

Key:
[1] = tested on: TNFα-FL/Gaussia Luciferase; assay: Dox Induced TNFα-FL-Gluc Assay; format: cell-based; details: for IC50: 24 hr Dox induction, 293FRT/TO cells, read-out: 24 hr Dox Inducible TNFaFLGluc 293FRT/TO: Mean IC50; for 24 hr Dox Inducible TNFaFLGluc 293FRT/TO: TNF/PD1: ratio of TNFaFLGluc IC50 to PD1ssGluc IC50
In short: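 Compound was added with doxycycline to cells plated a day earlier, incubating at 37° C under 5% CO2. The reporter line is 293 T-REx expressing a TNFα (1-233)–Gaussia luciferase fusion under tetracycline-regulated control.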

[2] = tested on: PD1-ss+10aa/Gaussia Luciferase; assay: Dox-Induced PD1-ss-Gluc Assay; format: cell-based; details: 24 hr Dox induction, 293FRT/TO cells, read-out: 24 hr Dox Inducible PD1ssGluc 293FRT/TO: Mean IC50
In short: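 Flp-In 293 T-REx cells stably carrying a doxycycline-inducible Gaussia luciferase fused to the PD1 signal sequence plus 10 aa were plated the day before. Compound dilutions in DMSO/media containing doxycycline were then added and incubated at 37 °C, 5% CO2. Data for undefined stereochemistry refer to stereoisomer mixtures.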

[3] = Liver Microsome Stability Assay (monkey); details: monkey liver microsomes, with NADPH, 1.0 uM compound
Method: (§1) Stability of a compound was assessed in the presence of liver microsomes from various sources—mouse, rat, monkey and human liver microsomes. 1.0 uM compound, 0.4% DMSO in 0.1 M Potassium Phosphate with 1.0 mg/mL liver microsomes, were incubated at 37° C. with or without 1 mM NADPH. The samples were quenched at 0, and 30 minutes.

[4] = tested on: multiple myeloma cell line NCI-H929; assay: H929 Cell Viability Assay; format: cell-based, human; details: Homo sapiens, NCI-H929, 48 h, NCI-H929 cells, Celltiter-Glo
In short: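 Luminescent CellTiter-Glo read-out of viability after a 48 h exposure (37° C, 5% CO2) of NCI-H929 myeloma cells to compound dilutions in RPMI 1640 plus 10% FBS. Data for structures drawn without stereochemistry refer to stereoisomer mixtures.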

[5] = Liver Microsome Stability Assay (mouse); details: mouse liver microsomes, with NADPH, 1.0 uM compound
Method: as §1

[6] = tested on: HER3-ss+4aa/Gaussia Luciferase; assay: Dox-Induced Her3-ss-Gluc Assay; format: cell-based; details: 24 hr Dox induction, 293FRT/TO cells, read-out: 24 hr Dox Inducible Her3(ss + 4)Gluc 293FRT/TO: Mean IC50
In short: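 Compounds were diluted in DMSO/media containing doxycycline. They were added to Flp-In 293 T-REx cells plated the previous day, then incubated at 37 °C under 5% CO2. These cells stably express, under T-REx control, Gaussia luciferase fused to the HER3 signal sequence plus 4 amino acids.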

[7] = Liver Microsome Stability Assay (human); details: human liver microsomes, with NADPH, 1.0 uM compound
Method: as §1

[8] = tested on: multiple myeloma cell line U266B1; assay: U266 Cell Viability Assay; format: cell-based, human; details: Homo sapiens, U-266, 48 h, U266B1 cells, Celltiter-Glo
In short: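 CellTiter-Glo luminescence was read after a 48 h compound exposure (37 °C, 5% CO2) of human U266B1 myeloma cells grown in 10% FBS-supplemented RPMI 1640. Data for structures shown without defined stereochemistry refer to stereoisomer mixtures.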

[9] = tested on: IL-2-FL/Gaussia Luciferase; assay: Dox Induced IL2-FL-Gluc Assay; format: cell-based; details: for IC50: 24 hr Dox induction, 293FRT/TO cells, read-out: 24 hr Dox Inducible IL2FLGluc 293FRT/TO: Mean IC50; for 24 hr Dox Inducible IL2FLGluc 293FRT/TO: IL2/PD1: ratio of IL2FLGluc IC50 to PD1ssGluc IC50
In short: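 Compounds in DMSO/medium with doxycycline were applied to a 293 T-REx stable line expressing an IL-2 (aa 1-153)–Gaussia luciferase fusion under tetracycline-regulated control, cells seeded one day earlier; incubation at 37 °C, 5% CO2. Structures drawn without stereochemistry were tested as stereoisomer mixtures.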

[10] = Liver Microsome Stability Assay (rat); details: rat liver microsomes, with NADPH, 1.0 uM compound
Method: as §1

[11] = '<=>' given where both are I.A.

SMILES	IC50 ([1]; mean)	24 hr Dox Inducible TNFaFLGluc 293FRT/TO: TNF/PD1 [1, 11]	IC50 ([2]; mean)	Liver Microsome Stability (Multiple Species): Monkey - % Remaining after 30 min w/NADPH [3]	EC50 [4]	Liver Microsome Stability (Multiple Species): Mouse - % Remaining after 30 min w/NADPH [5]	IC50 ([6]; mean)	Liver Microsome Stability (Multiple Species): Human - % Remaining after 30 min w/NADPH [7]	EC50 [8]	IC50 ([9]; mean)	24 hr Dox Inducible IL2FLGluc 293FRT/TO: IL2/PD1 [9, 11]	Liver Microsome Stability (Multiple Species): Rat - % Remaining after 30 min w/NADPH [10]	IC50 [1]	24 hr Dox Inducible TNFaFLGluc 293FRT/TO: TNF/PD1 [1]	IC50 [2]	IC50 [6]	IC50 [9]	24 hr Dox Inducible IL2FLGluc 293FRT/TO: IL2/PD1 [9]
O=C(Nc1nc([C@H]2CCCN2c2ccccc2)cs1)c1cccn1CC1CCOCC1 [Compound C55, (R)-N-(4-(1-phenylpyrrolidin-2-yl)thiazol-2-yl)-1-((tetrahydro-2H-pyran-4-yl)methyl)-1H-pyrrole-2-carboxamide]	2560 nM	15.3	168 nM	6.6%	20100 nM	22.7%	374 nM	26.7%	> 25000 nM	740 nM	4.4	22.5%	–	–	–	–	–	–
CC(=O)N(C)c1ccc(N2CCC[C@@H]2c2csc(NC(=O)c3cccn3Cc3ccncc3)n2)cc1 [Compound A47]	–	–	–	0.06%	1210 nM	0.02%	–	1.82%	> 25000 nM	–	–	1.17%	554 nM	12.7	43.6 nM	83.5 nM	82.3 nM	1.9
N#Cc1cc(C(=O)Nc2nc([C@H]3CCCN3c3ccccc3)cs2)n(Cc2ccnc(F)c2)c1 [Compound A149, (R)-4-cyano-1-((2-fluoropyridin-4-yl)methyl)-N-(4-(1-phenylpyrrolidin-2-yl)thiazol-2-yl)-1H-pyrrole-2-carboxamide]	–	–	–	9.8%	2540 nM	46%	–	25.9%	4390 nM	–	–	17.1%	1010 nM	14.9	68.1 nM	126 nM	152 nM	2.2
O=C(Nc1nc([C@H]2CCCN2c2ccc(C(F)(F)F)cc2)cs1)c1cccn1Cc1ccncc1 [Compound A28, (R)-1-(pyridin-4-ylmethyl)-N-(4-(1-(4-(trifluoromethyl)phenyl)pyrrolidin-2-yl)thiazol-2-yl)-1H-pyrrole-2-carboxamide]	–	–	–	3.97%	251 nM	30.3%	–	16.4%	10100 nM	–	–	51.5%	137 nM	23.9	5.73 nM	11.6 nM	10.8 nM	1.9
CCc1ccc(N2CCC[C@@H]2c2csc(NC(=O)c3cccn3Cc3ccnc(F)c3)n2)cc1 [Compound A77, (R)-N-(4-(1-(4-ethylphenyl)pyrrolidin-2-yl)thiazol-2-yl)-1-((2-fluoropyridin-4-yl)methyl)-1H-pyrrole-2-carboxamide]	–	–	–	22.4%	60.1 nM	79.6%	–	72.8%	> 25000 nM	–	–	38.1%	19.1 nM	10.4	1.84 nM	3.62 nM	3.22 nM	1.8
CC(C#N)n1cnc(/C=C/c2csc(NC(=O)c3cccn3Cc3ccnc(F)c3)n2)c1 (stereo not drawn) [Compound B107, (E)-N-(4-(2-(1-(1-cyanoethyl)-1H-imidazol-4-yl)vinyl)thiazol-2-yl)-1-((2-fluoropyridin-4-yl)methyl)-1H-pyrrole-2-carboxamide]	–	–	–	0.33%	> 25000 nM	35.4%	–	0.55%	> 25000 nM	–	–	18.8%	> 25000 nM	>52.5	476 nM	> 25000 nM	> 25000 nM	>52
O=C(Nc1nc([C@H]2CCCN2c2ccc(OC3CCNCC3F)cc2)cs1)c1cccn1Cc1ccnc(F)c1 (stereo partly drawn) [Compound A107, N-(4-((2R)-1-(4-((3-fluoropiperidin-4-yl)oxy)phenyl)pyrrolidin-2-yl)thiazol-2-yl)-1-((2-fluoropyridin-4-yl)methyl)-1H-pyrrole-2-carboxamide]	–	–	–	12.7%	4550 nM	6%	–	23.1%	7280 nM	–	–	64.6%	2910 nM	14.2	205 nM	322 nM	462 nM	2.3
CC(C)c1ccc(/C=C/c2csc(NC(=O)c3cccn3Cc3cc(F)nc(F)c3)n2)nc1 [Compound B87, (E)-1-((2,6-difluoropyridin-4-yl)methyl)-N-(4-(2-(5-isopropylpyridin-2-yl)vinyl)thiazol-2-yl)-1H-pyrrole-2-carboxamide]	–	–	–	0.04%	9920 nM	1.23%	–	0.15%	14100 nM	–	–	0.18%	> 25000 nM	>189	132 nM	> 25000 nM	> 25000 nM	>190
N#CCCCCn1cccc1C(=O)Nc1nc([C@H]2CCCN2c2ccccc2)cs1 [Compound C1, (R)-1-(4-cyanobutyl)-N-(4-(1-phenylpyrrolidin-2-yl)thiazol-2-yl)-1H-pyrrole-2-carboxamide]	10000 nM	22.1	455 nM	0.35%	24100 nM	23.2%	1330 nM	29.3%	> 25000 nM	1260 nM	2.8	7.64%	–	–	–	–	–	–
